# Target: Gag-Pol polyprotein (Human immunodeficiency virus type 1 group M subtype A (isolate U455)(HIV-1), UniProt P24740)
# Experiment: Integrase Assay: The effect of each compound on HIV integrase activity was assayed using the HIV-1 Integrase Assay Kit version 2.0, catalogue number EZ-1700 obtained from XpressBio Life Science Products. Immediately prior to the start of the assay, both compounds were dissolved in dimethyl sulfoxide (DMSO) and used immediately in the HIV integration assay. The assay was performed according to the instructions listed by the manufacturer (XpressBio Life Science Products, Maryland, USA). In brief, the required streptavidin-coated strip wells were coated with DS oligo and placed overnight at 4° C. The plates were then incubated with integrase and followed by the addition of test articles at the desired concentration. The plates were developed using the supplied HRP antibody and TMB peroxidase substrate as per the manufacturer's instructions. The reactions were stopped with TMB stop solution and immediately read (<10 min) using a VICTOR XXX. The absorbance of each well was read at 450 nm for 0.5 sec.
# Gag-Pol polyprotein, sequence (P24740 1141-1428 limits assumed): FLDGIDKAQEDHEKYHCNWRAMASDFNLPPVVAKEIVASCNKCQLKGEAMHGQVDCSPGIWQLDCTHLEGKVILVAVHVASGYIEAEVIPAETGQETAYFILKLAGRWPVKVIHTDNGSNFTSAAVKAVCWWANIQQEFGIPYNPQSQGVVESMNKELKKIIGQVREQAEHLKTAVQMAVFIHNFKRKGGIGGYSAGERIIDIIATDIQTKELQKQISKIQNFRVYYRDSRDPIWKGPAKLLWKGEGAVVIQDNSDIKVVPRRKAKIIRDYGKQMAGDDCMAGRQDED
row,Structure (SMILES),IC50
1,Cn1cnc(-c2nnc(Cc3ccc(F)cc3)o2)c(O)/c1=N/O,58.7 µM
2,Cn1nc(-c2nnc(Cc3ccc(F)cc3)o2)/c(=N/O)c2ncccc21,23.9 µM
